Experiment: Human HepG2 cell viability assay in 384 well format
Type: toxicity, cell-based
Design: dose 125 nL, time 70.5 hour; cytotoxicity at 70.5 h: concentration not given beside the values
Details: HepG2 cells, read-out: Inhibition
In the case of Cc1ccc2c(c1)C1(CCN(C(N)=O)CC1)CN2CC1CC1, the cytotoxicity at 70.5 h was -1.07%. In the case of CC(C)N(C)Cc1ncn2c1CN(C(=O)C1CCCO1)CCC2 (stereo not given), the cytotoxicity at 70.5 h was -0.921%. In the case of c1cc2nc(C3CCNCC3)nn2cc1NC1CCC1, the cytotoxicity at 70.5 h was 23.2%. In the case of CCc1ncnc2c1CCN(S(=O)(=O)c1ccccc1)CC2, the cytotoxicity at 70.5 h was 3.38%. Work on CN(C)C[C@@H]1C[C@@H]2CN(Cc3nccn3C)CC[C@@H]2N1CC1CC1 yielded a cytotoxicity at 70.5 h of -0.157%. Work on CCS(=O)(=O)N1Cc2cncn2CC(C(=O)NCC2CC2)C1 (stereo not given) yielded a cytotoxicity at 70.5 h of 1.86%. With Cn1cc(C2COC3(CCN(C(=O)Cc4ccccc4)CC3)C2)cn1 (stereo not given) the cytotoxicity at 70.5 h was -8.09%. In the case of Cc1cccc(S(=O)(=O)N2Cc3nccn3CC(CN(C)C)C2)c1 (stereo not given), the cytotoxicity at 70.5 h was -8.23%. For O=C1N(c2ccsc2)CCC12CCCN(c1ncc(F)cn1)C2 (stereo not given), the cytotoxicity at 70.5 h was -9.83%. For CCOCC1CN(S(=O)(=O)c2ccccc2)Cc2nccn2C1 (stereo not given), the cytotoxicity at 70.5 h was 13.5%. With COCC1CC2(CCN(Cc3nc(C)cs3)CC2)CO1 (stereo not given) the cytotoxicity at 70.5 h was -8.71%. CCS(=O)(=O)N1CCc2c(COCc3ccncc3)cncc2C1 showed a cytotoxicity at 70.5 h of 18.9%. CN(C)CCNCC1COCc2c(-c3ccnn3C)nnn2C1 (stereo not given) gave a cytotoxicity at 70.5 h of 16.1%. With CC(=O)N1CCC2(CC1)c1ncc(-c3ccc(F)cc3)n1CCN2C the cytotoxicity at 70.5 h was -3.18%. In the case of O=C(NCc1ccccc1)N1CCc2ncnc(NC3CC3)c2CC1, the cytotoxicity at 70.5 h was -3.8%. For CC(C)CN1C[C@H]2N(c3ncccn3)CCC[C@@]2(C(=O)NCC2CC2)C1, the cytotoxicity at 70.5 h was -3.44%. Compound CC1(C)CC1(C(=O)N1CC(c2cccnc2)C1)c1ccc(F)cc1 (stereo not given) has a cytotoxicity at 70.5 h of 29.7%. Compound CC(C)[C@@H]1CN(C2CCN(Cc3ccccc3)CC2)C[C@H]1NS(C)(=O)=O has a cytotoxicity at 70.5 h of 0.292%. Work on OCC1(O)CCN(c2ccnc3c(C(F)(F)F)cccc23)CC1 yielded a cytotoxicity at 70.5 h of -3.41%. CC(=O)c1cnc(N(C)Cc2cc(C)cc(C)n2)nc1C gave a cytotoxicity at 70.5 h of -8.24%. In the case of COC(=O)CCCn1ccnc1-c1ccccc1, the cytotoxicity at 70.5 h was -3.23%. O=C(O)c1cccc(N2C[C@H](NC(=O)C3CCOCC3)[C@@H](C3CC3)C2)n1 gave a cytotoxicity at 70.5 h of -4.78%. With Cc1cc(N2CCC(c3nccn3Cc3cscn3)CC2)ccn1 the cytotoxicity at 70.5 h was -3.14%. CCC(CC)CN1CCC2(CCC(=O)N2OCc2ccccc2F)CC1 gave a cytotoxicity at 70.5 h of 21.6%. Compound CCOC(=O)c1coc(N2CCC(N3CCC(O)CC3)CC2)n1 has a cytotoxicity at 70.5 h of -7.59%. CS(=O)(=O)N1CCC(N2CCCC2c2ccccn2)CC1 (stereo not given) gave a cytotoxicity at 70.5 h of 2.33%. CN1CC(c2ccccc2)CC2(CCN(C(=O)c3ccccc3)CC2)C1 (stereo not given) gave a cytotoxicity at 70.5 h of -5.15%. Work on Nc1ccnc(N2C[C@H](O)[C@@H](N3CCN(c4ccccn4)CC3)C2)n1 yielded a cytotoxicity at 70.5 h of -17.6%. For Cc1nn2c(N3CCC(C#N)CC3)cc(-c3ccccc3)nc2c1C, the cytotoxicity at 70.5 h was 1.27%. Compound Cn1ccnc1SCCNC1CCN(c2nc3ccccc3s2)CC1 has a cytotoxicity at 70.5 h of -1.58%. Compound Cc1nc(C(C)C)ncc1C(=O)N1CCc2c(nc(N(C)C)[nH]c2=O)C1 has a cytotoxicity at 70.5 h of -4.39%. CCc1nn(C)c(Cl)c1CN1CCC(Cc2nncn2C)CC1 gave a cytotoxicity at 70.5 h of -3.75%. CSCc1nc(CCNC(=O)C2CCCN(C(C)=O)C2)cs1 (stereo not given) gave a cytotoxicity at 70.5 h of -2.37%. CCN1CC2(CCC1=O)CCN(Cc1nncn1C)CC2 gave a cytotoxicity at 70.5 h of -5.87%. O=C(NCCc1nccs1)C1CCCN(Cc2ccco2)C1 (stereo not given) gave a cytotoxicity at 70.5 h of -2.53%. With CCOc1ccc(CN2CCCC(c3nn(C)c(=O)n3CC)C2)cn1 (stereo not given) the cytotoxicity at 70.5 h was -6.89%. Cc1noc(-c2ccc(N3CCN(Cc4nccn4C)CC3)nc2)n1 showed a cytotoxicity at 70.5 h of -15.7%. In the case of Fc1ccc(-c2cc(NCCC3CCOC3)n3nccc3n2)cc1 (stereo not given), the cytotoxicity at 70.5 h was 0.148%. COC(C)(C)C(=O)N[C@H]1CN(c2nccnc2N(C)C)C[C@@H]1C(C)C showed a cytotoxicity at 70.5 h of -5.98%. With CC(C)c1nc(CCn2cncn2)n(-c2ccc3c(c2)OCCO3)n1 the cytotoxicity at 70.5 h was -12.6%. For CC(C)CCNC(=O)C(c1cccc(F)c1)N(C)C (stereo not given), the cytotoxicity at 70.5 h was 3.05%. For c1cc2c(c(-c3cc(N4CCOCC4)ncn3)c1)CCNC2, the cytotoxicity at 70.5 h was -7.28%. CCCOC1CCCN(c2ccnc(C(=O)NCc3ccco3)c2)C1 (stereo not given) showed a cytotoxicity at 70.5 h of -8.53%. In the case of CN1CCC(O)(CCNC(=O)[C@@]23CNC[C@@H]2CN(C2CCCC2)C3)CC1, the cytotoxicity at 70.5 h was 11.4%. Compound c1ccc2c(c1)CC(n1ccnc1-c1cc3n(n1)CCCNC3)CO2 (stereo not given) has a cytotoxicity at 70.5 h of -6.83%. For O=C(CC1CC1)N(Cc1cccnc1)CC1CCN(C2CCCC2)CC1, the cytotoxicity at 70.5 h was -1.09%. In the case of Cc1cccc2c(=O)n(C(C)Cc3cccnc3)cnc12 (stereo not given), the cytotoxicity at 70.5 h was -8.06%. With COCCCn1c(CN2CCSCC2)cnc1S(=O)(=O)C1CCCC1 the cytotoxicity at 70.5 h was -2.29%. Work on CC(C)CCCC1CN(C(=O)c2cnc[nH]2)CCO1 (stereo not given) yielded a cytotoxicity at 70.5 h of -11.4%. With Cc1cc(C)c2c(N3CCN(Cc4ncccc4C)CC3)ncnc2n1 the cytotoxicity at 70.5 h was -8.35%. Compound Cc1nc2cc(C(=O)N3C[C@@H](NS(C)(=O)=O)[C@H](C(C)C)C3)ccc2[nH]1 has a cytotoxicity at 70.5 h of 18.5%. With Cc1cc(C)c2nc(CN3CCOCC(O)C3)cc(O)c2c1 (stereo not given) the cytotoxicity at 70.5 h was -0.735%. Compound CCN(Cc1nc(COC)no1)Cc1cccnc1NC has a cytotoxicity at 70.5 h of -21.9%. With CCOC(=O)c1coc(N2CCC(C(O)CC(C)C)CC2)n1 (stereo not given) the cytotoxicity at 70.5 h was -1.6%. Work on COc1cccc(N2CCC(N3CCOC(C(F)(F)F)C3)CC2)c1 (stereo not given) yielded a cytotoxicity at 70.5 h of -18.1%.
